Each structure is given as a SMILES string. “And” between values parts separate entries of the source, which are not always exact repeats. Equal values may be shown once. Read-outs that look alike come from different tables or passages of the source.

The test system of series [1] is A375 cells. The series can be described thus: Flow cytometry cell cycle (G2/M) and apoptosis (sub-G1) analysis, A375. It counts as cell-based, human. The following applies: for EC50: Homo sapiens; for reduction of apoptosis induced by paclitaxel: A375, paclitaxel 25 ng/ml, PD98059 20 μM, U0126 30 μM, SB203580 1 μM. How it is done:
Flow Cytometry Analysis: A375 and NCTC2544 adherent cells were trypsinized, mixed with floating cells, washed with PBS and permeabilised in 70% (vol/vol) ethanol/PBS solution at 4° C. for at least 24 hours. Jurkat, HeL023 and PBMC cells were centrifuged for 10 minutes at 1000×g. The cell pellet was then resuspended and permeabllised in 70% (vol/vol) ethanol/PBS solution at 4° C. for at least 24 hours. The cells were washed with PBS and the DNA was stained with a PBS solution, containing 20 μg/ml of propidium iodide and 100 μg/ml of RNAse, at room temperature for 30 minutes. Cells were analysed by FACScan (Becton-Dickinson) and the content of DNA was evaluated by the Cell-LISYS program (Becton-Dickinson). Cell distribution among cell cycle phases and apoptotic cells was evaluated as previously described (Secchiero et al., 2001). Briefly, the cell cycle distribution is shown as the percentage of cells containing 2n (G1 phase), 4n (G2 and M phases), 4n>x>2n. DNA amount (S phase) judged by propidium iodide staining. The apoptotic population is the percentage of cells with DNA content lower than 2n.
After 24 hours, cells were collected for flow cytometry analysis. PD 98059 was used at 20 uM as an inhibitor of MEK to prevent MEK-1 activation. […]
EC50 values were obtained by analysing G2/M accumulation dose response curve. ECMAX values were obtained by analysing sub-G1 accumulation dose response curve. Paclitaxel values have units of ng/ml.
For orientation: Flow cytometry measures light scatter and fluorescence of single cells or particles in a stream.

The target in series [2] is P-gp (Homo sapiens, UniProt P08183). It counts as cell-based. The following applies: for % of Rh123 Negative Cells (cells expressing P-gp activity): HeL023 cells. The procedure: Rhodamine 123 Efflux Assay: 5×10^5 cells from each subline were loaded with 50 ng/ml of rhodamine 123 for 30 minutes at 37 C in medium. The cells were washed and resuspended in dye-staining agent free medium for 3 hours at 37 C. to allow rhodamine 123 efflux. The cells were then washed twice and the fluorescence of intracellular rhodamine 123 were analysed with Flow cytometer (residual fluorescence FRES). The fluorescence was compared with loaded cells maintained at 4 C. to prevent drug export (maximal fluorescence FMAX). […] Cells from each subline that were not being exposed to rhodamine 123 were used as negative controls.
Rhodamine 123 (Rh123) retention, a P-gp functional assay, was studied in all cell lines. This assay was performed by incubating cells with Rh123 and determining Rh123 accumulation by measuring its fluorescence. The maximum load of Rh123 (FMAX) was quantified at the end of treatment harvesting the cells and storing them at 4° C. to prevent any active Rh123 efflux. The P-gp drug efflux was allowed incubating Rh123-loaded cells in fresh new medium Rh123-free for 3 hours at 37° C. After this incubation, residual fluorescence (FRES) was measured and compared to FMAX.

Series [3] relates to HIF-1α. Put plainly: HIF-1α protein immunoblot in hypoxic cells. The class given is cell-based, human. The following applies: A375; for effect on Cl-IB-MECA-induced increase of HIF-1α protein expression / effect on adenosine-induced HIF-1α protein expression: hypoxia 4 hours; for effect on Cl-IB-MECA-induced increase of HIF-1α protein expression: Cl-IB-MECA 100 nM, U0126 10 and 30 μM, SB202190 1 and 10 μM; for effect on adenosine-induced HIF-1α protein expression: adenosine 100 μM, antagonist 100 nM. How it is done:
Cell culture and hypoxia treatment: Cells were maintained in DMEM (A375), EMEM (NCTC 2544) or RPMI 1640 (U87MG, U2OS) medium containing 10% fetal calf serum, penicillin (100 U/ml), streptomycin (100 ug/ml), and L-glutamine (2 mM) at 37° C. in 5% CO2/95% air. Cells were passaged two or three times weekly at a ratio between 1:5 and 1:10. Hypoxic exposure was in BBL™ GasPak pouch™ System (Becton Dickinson) that reduce oxygen concentration of less than 2% within 2 hours of incubation at 35° C.
Cells were harvested and washed with ice-cold PBS containing 1 mM sodium orthovanadate, AEBSF 104 mM, aprotinin 0.08 mM, leupeptin 2 mM, bestatin 4 mM, pepstatin A 1.5 mM, E-64 1.4 mM. Cells were then lysed in Triton lysis buffer. The protein concentration was determined using BCA protein assay kit (Pierce). […] The gel was then electroblotted onto a nitrocellulose membrane. Membranes were blocked with 5% nonfat dry milk in PBS containing 0.1% Tween-20 and incubated with antibodies against HIF-1α (1:250 dilution) and HIF-1β (1:1000 dilution) in 5% nonfat dry milk in PBS/0.1% Tween-20 overnight at 4° C. Aliquots of total protein sample (50 ug) were analyzed using antibodies specific for phosphorylated (Thr183/Tyr185) or total p44/p42 MAPK (1:5000 dilution), phosphorylated (Thr180/Tyr182) or total p38 MAPK (1:1000 dilution) and for A3 receptor (1 µg/ml dilution). Filters were washed and incubated for 1 hour at room temperature with peroxidase-conjugated secondary antibodies against mouse and rabbit IgG (1:2000 dilution). […] The membranes were then stripped and reprobed with tubulin (1:250) to ensure equal protein loading.
U0126 was used at 10 and 30 uM as inhibitor of MEK-1 and MEK-2 to prevent p44 and p42 MAPK activation. SB202190 was used at 1 and 10 uM as inhibitor of p38 MAPK.
Densitometry analysis: The intensity of each band in immunoblot assay was quantified using molecular analyst/PC densitometry software (Bio-Rad). […] The data were presented as the mean±S.E., and analyzed by the Student's test.
A general note: Immunoblotting shows a protein as a band on a membrane.

In series [4] the test system is Human Colon Carcinoma HT29. The series can be described thus: MTT growth inhibitory assay, HT29. It counts as cell-based. The following applies: for Enhancement Factor: HT29 cells, A3 antagonist at 0.5 μg/ml. How it is done:
(§1) Interpretation of the EF is dependent upon the concentrations of A3 receptor antagonist tested. For example, when using very low concentrations of A3 receptor antagonist, any EF above 1.0 is synergistic if the A3 receptor antagonist concentration is below the threshold of cell growth inhibition.
(§2) The cells are sub-cultured twice a week.
(§3) Vinblastine sulfate salt was obtained from Sigma Chemical Co., (V1377). Irinotecan was diluted with culture medium. All other agents were dissolved in 100% DMSO at appropriate concentrations. The DMSO stock solutions were diluted 100-fold with growth medium so that the final DMSO concentration was 1%.
(Formazan colour is commonly taken as a measure of viable cells.)

Series [5] relates to Human Pancreatic Cancer Panc-1. The series can be described thus: MTT growth inhibitory assay, Panc-1. The following applies: Panc-1 cells, A3 antagonist at 0.5 μg/ml. The class given is cell-based. How it is done: as §1, §2, §3
Series [6] has as its system Human Lung Carcinoma SKMES. The series can be described thus: MTT growth inhibitory assay, SKMES. It counts as cell-based. The following applies: SKMES cells, A3 antagonist at 0.5 μg/ml. The procedure:
as §1, §2, §3

In series [7] the test system is Human Melanoma A375. Put plainly: MTT growth inhibitory assay, A375. The settings on record: A375 cells.
Description: An exemplary assay may comprise the following steps: Cells (1000-1500 cells/well) are seeded in a 96-well micro culture plate in a total volume of 100 μl/well. After overnight incubation in a humidified incubator at 37° C. with 5% CO2-95% air, chemotherapeutic drug solutions diluted with culture medium at various concentrations are added in the amount of 100 μl to each well. The plates are placed in a humidified incubator at 37° C. with 5% CO2-95% air for 7-10 days. The plates are then centrifuged briefly and 100 μl of the growth medium is removed. Cell cultures are incubated with 50 μl of MTT [3-(4,5-dimethylthiazol-2-yl)-2,5-diphenyl-tetrazolium bromide] reagent (1 mg/ml in Dulbecco's phosphate-buffered saline) for 4 hr at 37° C. The resultant purple formazan precipitate is solubilized with 200 μl of 0.04 N HCl in isopropanol. Absorbance is measured at a wavelength of 595 nm and at a reference wavelength of 655 nm using a Bio-Rad Model 3550 Microplate Reader. Preferably, all tests are run in duplicate for each dose level. […] The EZED50 computer program estimates the concentration of agent that inhibits cell growth by 50% as compared to the control cells. This is termed the IC50 and is determined by curve fitting test data using the following four logistic equation. [formula]
If testing concentrations are properly selected (i.e., no or little growth inhibition at low concentrations and complete inhibition at high concentrations), EZED50 program fits the data extremely well and estimates the IC50 value accurately. […] In these instances, the data could be re-analyzed by fixing the Amax value.
In this case, the IC50 could be estimated more accurately if both the Amax and Amin values are fixed. Although it may be feasible to estimate IC50 value by fixing Amax and/or Amax and Amin without repeating the experiment, the best way to determine the IC50 accurately is to decrease or increase the concentrations of the test agent and repeat the test.
Inhibitory assay testing is also used to determine enhanced therapeutic effects from combining A3 receptor antagonists with other tumor inhibiting agents. The inhibitory cell growth assays are run with and without selected concentrations of A3 receptor antagonists. An enhanced therapeutic effect is present when the IC50 of the tumor inhibiting agent is lower with the A3 receptor antagonist.
Quantitatively, the enhancement factor (EF) is calculated by dividing the IC50 value of the tumor inhibiting agent for a tumor cell line by the IC50 value of the agent with A3 receptor antagonist for the same cell line: [formula]
The cells are cultured in a T25 Falcon Tissue Culture flask in a humidified incubator at 37° C. with 5% CO2-95% air. The cells are sub-cultured twice a week.
For series [8] the following is noted: administered at 100 mg/m^2; cited from earlier work.

P-gp, sequence (P08183 whole entry): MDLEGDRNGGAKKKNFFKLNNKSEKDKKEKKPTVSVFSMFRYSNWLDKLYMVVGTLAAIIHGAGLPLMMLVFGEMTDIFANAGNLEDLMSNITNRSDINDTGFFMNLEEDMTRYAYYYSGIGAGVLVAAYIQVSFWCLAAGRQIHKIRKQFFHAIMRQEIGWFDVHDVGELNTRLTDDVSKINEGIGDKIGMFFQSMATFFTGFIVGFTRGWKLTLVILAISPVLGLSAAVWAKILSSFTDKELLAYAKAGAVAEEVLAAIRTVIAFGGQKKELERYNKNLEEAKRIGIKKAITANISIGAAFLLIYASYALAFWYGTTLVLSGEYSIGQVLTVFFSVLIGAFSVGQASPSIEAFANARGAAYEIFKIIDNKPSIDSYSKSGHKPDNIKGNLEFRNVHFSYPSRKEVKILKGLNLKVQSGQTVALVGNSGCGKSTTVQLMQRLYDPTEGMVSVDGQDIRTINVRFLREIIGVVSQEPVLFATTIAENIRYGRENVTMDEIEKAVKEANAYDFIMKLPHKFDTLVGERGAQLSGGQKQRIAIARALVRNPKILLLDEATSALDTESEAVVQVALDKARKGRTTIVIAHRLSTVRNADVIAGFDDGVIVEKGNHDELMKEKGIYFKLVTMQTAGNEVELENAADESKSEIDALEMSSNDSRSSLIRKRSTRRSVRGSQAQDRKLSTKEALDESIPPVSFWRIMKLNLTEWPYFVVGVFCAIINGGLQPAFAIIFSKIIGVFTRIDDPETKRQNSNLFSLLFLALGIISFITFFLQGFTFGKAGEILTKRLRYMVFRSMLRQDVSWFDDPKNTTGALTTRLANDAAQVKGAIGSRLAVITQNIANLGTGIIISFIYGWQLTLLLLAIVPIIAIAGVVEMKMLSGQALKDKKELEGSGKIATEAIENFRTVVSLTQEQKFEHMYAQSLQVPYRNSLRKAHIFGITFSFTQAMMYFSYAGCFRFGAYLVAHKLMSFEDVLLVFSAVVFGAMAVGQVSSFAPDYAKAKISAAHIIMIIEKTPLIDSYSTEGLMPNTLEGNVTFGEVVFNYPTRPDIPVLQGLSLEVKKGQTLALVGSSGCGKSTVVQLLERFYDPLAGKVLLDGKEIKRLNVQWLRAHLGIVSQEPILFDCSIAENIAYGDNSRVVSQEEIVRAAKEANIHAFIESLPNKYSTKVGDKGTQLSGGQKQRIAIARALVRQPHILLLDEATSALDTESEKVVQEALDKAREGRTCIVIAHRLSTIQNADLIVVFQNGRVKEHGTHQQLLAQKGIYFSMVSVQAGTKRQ

With `Nc1nc2ccc(Cl)cc2c2nc(-c3ccco3)nn12` [CGS 15943, 5-amino-9-chloro-2-(furyl)1,2,4-triazolo[1,5-c]quinazoline, reference compound], the EC50 in series [1] (A-375, read-out: SEC50) stood at 12600 ± 1410 nM. Further, the “% of Rh123 Negative Cells (cells expressing P-gp activity)” value in series [2] (70 μM) is listed as 87.1 ± 1.0%.

Turning to `N#CC(=C(/N)Sc1ccccc1N)/C(C#N)=C(\N)Sc1ccccc1N` [Compound U0126], the “reduction of apoptosis induced by paclitaxel” value in series [1] amounted to 73±10%. Moreover, the “effect on MRE 3008F20 blockade of P-gp” value in series [2] (A375, U0126 30 μM 30 minutes, then MRE3008F20 10 μM) is recorded as “failed to prevent MRE 3008F20 blockade of P-gp”. For the same compound, in series [3], the “effect on Cl-IB-MECA-induced increase of HIF-1α protein expression” value is “able to inhibit”.

On to `CCN(CC)c1ccc(NC(=O)Nc2nc3nn(C)cc3c3nc(-c4ccco4)nn23)cc1.Cl` [IL-10, N-1-(4-diethylamino-phenyl)-N′—S-[8-methyl-2-(2-furyl)-pyrazolo[4,3-e]1,2,4-triazolo[1,5-c]pyrimidine]-urea], for which the “Enhancement Factor” value in series [4] (enhancement of docetaxel IC50) worked out at 5.5; in series [4] (enhancement of doxorubicin IC50) it was 1.5; in series [4] (enhancement of irinotecan IC50) it was 1.2; in series [4] (enhancement of paclitaxel IC50) it was 2.5; in series [5] (enhancement of docetaxel IC50) it was 1.4; in series [5] (enhancement of paclitaxel IC50), 1.7. Moreover, the “Enhancement Factor” value in series [6] (enhancement of docetaxel IC50) is on record as 2.8; in series [6] (enhancement of irinotecan HCL IC50), 1.7; in series [6] (enhancement of paclitaxel IC50) it was 2.8; in series [6] (enhancement of vinblastine IC50), 1.4; in series [7] (enhancement of docetaxel IC50, A3 antagonist at 0.5 μg/ml), 8.4; in series [7] (enhancement of docetaxel IC50, A3 antagonist at 5 μg/ml), 2.9. Besides, the “Enhancement Factor” value in series [7] (enhancement of paclitaxel IC50, A3 antagonist at 0.5 μg/ml) was 3.7; in series [7] (enhancement of paclitaxel IC50, A3 antagonist at 5 μg/ml) it was 8.8 and 9.2. Further, the “% of Rh123 Negative Cells (cells expressing P-gp activity)” value in series [2] (10 μM) stood at 0.4 ± 0.2%.

For `CCCn1c(=O)c2[nH]c(-c3cc(OCC(=O)Nc4ccc5c(c4)OCO5)nn3C)nc2n(CCC)c1=O` [MRE 2029F20], the “effect on adenosine-induced HIF-1α protein expression” value in series [3] was “not able to prevent”.

Turning to `Cn1cc2c(nc(NC(=O)Nc3ccncc3)n3nc(-c4ccco4)nc23)n1` [MRE 3005F20], in series [3] (hypoxia, antagonist 10 and 100 nM, Cl-IB-MECA 10 and 100 nM), the “effect on Cl-IB-MECA-induced HIF-1α modulation” value was “able to abrogate the effect of Cl-IB-MECA”.

Regarding `Cc1ccc(NC(=O)Nc2nc3nn(C)cc3c3nc(-c4ccco4)nn23)cc1` [MRE 3046F20, 5-N-(4-methylphenyl-carbamoyl)amino-8-methyl-2(2-furyl)-pyrazolo-[4,3e]-1,2,4-triazolo[1,5-c]pyrimidine], the EC50 in series [1] (A-375, read-out: SEC50) was found to be 570 ± 60 nM. Also, the “% of Rh123 Negative Cells (cells expressing P-gp activity)” value in series [2] (10 μM) came to 22.0 ± 1.0%.

`CCCn1cc2c(nc(NC(=O)Nc3ccccc3)n3nc(-c4ccco4)nc23)n1` [MRE 3055F20, 5-N-(4-phenylcarbamoyl)amino-8-propyl-2(2furyl)-pyrazolo[4,3e]-1,2,4-triazolo-[1,5c]pyrimidine]: the EC50 in series [1] (A-375, read-out: SEC50) was determined as 310 ± 30 nM. The “% of Rh123 Negative Cells (cells expressing P-gp activity)” value in series [2] (10 μM) turned out to be 0.8 ± 0.2%.

Take `Oc1ccc(-c2nc(-c3ccncc3)c(-c3ccc(F)cc3)[nH]2)cc1` [SB202190]: the “effect on Cl-IB-MECA-induced increase of HIF-1α protein expression” value in series [3] is “able to inhibit”.

As for `C[S+]([O-])c1ccc(-c2nc(-c3ccncc3)c(-c3ccc(F)cc3)[nH]2)cc1` (stereo not shown) [SB203580], the “reduction of apoptosis induced by paclitaxel” value in series [1] is recorded as “did not exert any effect”.

On to `Nc1nc2c(cnn2CCc2ccccc2)c2nc(-c3ccco3)nn12` [SCH 58261, 5-amino-7-(2-phenylethyl)-2-(2-furyl)-pyrazolo[4,3-e]-1,2,4-triazolo[1,5-c]pyrimidine], for which, in series [3], the “effect on adenosine-induced HIF-1α protein expression” value is listed as “not able to prevent”.

As to `CC(=O)O[C@@]12CO[C@@H]1C[C@H](O)[C@@]1(C)C(=O)[C@H](O)C3=C(C)[C@@H](OC(=O)[C@H](O)[C@@H](NC(=O)OC(C)(C)C)c4ccccc4)C[C@@](O)([C@@H](OC(=O)c4ccccc4)[C@H]21)C3(C)C` [docetaxel], in series [8], the “acute hypersensitivity reaction, % of patients” value is listed as 13% and the “severe hypersensitivity reaction, % of patients” value is on record as 1.2%.

For `COc1cccc2c1C(=O)c1c(O)c3c(c(O)c1C2=O)C[C@@](O)(C(=O)CO)C[C@@H]3O[C@H]1C[C@H](N)[C@H](O)[C@H](C)O1` [doxorubicin, reference compound], the “fold more refractory, HT29 vs A375 cell line (IC50)” value in series [4] is given as “approximately 30 fold”.

Consider `O=C1c2c(O)ccc(O)c2C(=O)c2c(NCCNCCO)ccc(NCCNCCO)c21` [mitoxantrone, reference compound], for which, in series [4], the “fold more refractory, HT29 vs A375 cell line (IC50)” value is listed as “approximately 30 fold”.

Turning to `CC[C@]1(O)C[C@@H]2CN(CCc3c([nH]c4ccccc34)[C@@](C(=O)OC)(c3cc4c(cc3OC)N(C)[C@H]3[C@@](O)(C(N)=O)[C@H](O)[C@]5(CC)C=CCN6CC[C@]43[C@@H]65)C2)C1` [vindesine], the EC50 in series [1] (A-375, 24 h, read-out: EC50 (G2/M accumulation)) turned out to be 1.9 ± 0.2 nM.

Values taken from patent publication US20060204502A1 (priority 2004, published 2006).
